Test [1] deals with BCL-2-dependent acute lymphoblastic leukemia (ALL) cell line RS4;11 overexpressing Bcl-2 G101V. Kind of test: cells. To be noted: Homo sapiens, read-out: RS4;11-G101V IC50. Format: cell-based. How it is done:
Biological Example 2: In vitro Anti-proliferation Assay in BCL-2-dependent acute lymphoblastic leukemia (ALL) cell line RS4; 11 overexpressing Bcl-2 G101V
Cell antiproliferation was assayed by PerkinElmer ATPlite™ Luminescence Assay System. Briefly, the various test cancer cell lines were plated at a density of about 1×10^4 cells per well in Costar 96-well plates, and were incubated with different concentrations of compounds for about 72 hours in medium supplemented with 5% FBS or 10% normal human serum (NHS). One lyophilized substrate solution vial was then reconstituted by adding 5 mL of substrate buffer solution, and was agitated gently until the solution was homogeneous. About 50 μL of mammalian cell lysis solution was added to 100 μL of cell suspension per well of a microplate, and the plate was shaken for about five minutes in an orbital shaker at −700 rpm. This procedure was used to lyse the cells and to stabilize the ATP. Next, 50 μL substrate solution was added to the wells and microplate was shaken for five minutes in an orbital shaker at −700 rpm. Finally, the luminescence was measured by a PerkinElmer TopCount® Microplate Scintillation Counter. Such assays, carried out with a range of doses of test compounds, allowed the determination of the cellular anti-antiproliferative IC50 of the compounds of the present invention.

In the next test the target is MDM2 (Homo sapiens (Human), UniProt Q00987). Kind of test: In vitro MDM2 HTRF assay (inhibition of p53-MDM2 interaction). Format: binding. Conditions: GST-MDM2 / biotinylated p53 peptide.
Sequence of MDM2 (Q00987 whole entry): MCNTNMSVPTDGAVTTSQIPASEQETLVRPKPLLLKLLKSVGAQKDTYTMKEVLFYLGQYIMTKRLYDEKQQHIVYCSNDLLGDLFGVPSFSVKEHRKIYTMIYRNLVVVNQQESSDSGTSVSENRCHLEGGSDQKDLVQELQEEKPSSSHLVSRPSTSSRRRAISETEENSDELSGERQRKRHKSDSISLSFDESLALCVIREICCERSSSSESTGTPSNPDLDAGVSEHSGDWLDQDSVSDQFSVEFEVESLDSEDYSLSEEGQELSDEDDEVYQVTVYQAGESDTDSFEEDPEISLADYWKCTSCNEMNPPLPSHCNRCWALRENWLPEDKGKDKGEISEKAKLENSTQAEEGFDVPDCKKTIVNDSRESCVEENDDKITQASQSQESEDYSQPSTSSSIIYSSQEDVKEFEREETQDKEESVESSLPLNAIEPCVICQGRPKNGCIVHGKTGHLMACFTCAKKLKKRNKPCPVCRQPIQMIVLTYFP
Setting [2] is: RS4-11, about 72 hours, ATPlite luminescence.

Read-outs that look alike come from different tables or passages of the source. A value given as a limit tells only on which side of the number the result lay.

Consider `COc1cc(C(N)=O)ccc1NC(=O)[C@@]1(C)N[C@H](CC(C)(C)C)[C@]2(CNc3cc(Cl)ccc32)[C@@H]1c1cccc(Cl)c1F` [Example 8, (2′R,3R,4′R,5′S)—N-(4-carbamoyl-2-methoxyphenyl)-6-chloro-4′-(3-chloro-2-fluorophenyl)-2′-(2,2-dimethylpropyl)-5′-methyl-1,2-dihydrospiro[indole-3,3′-pyrrolidine]-5′-carboxamide], for which the IC50 in test [1] (setting [2]) amounted to 127 nM.

In the case of `COc1cc(N2CCC[C@H](C#Cc3cccc4c3CN([C@@H]3CCC(=O)NC3=O)C4=O)C2)ccc1NC(=O)[C@@H]1N[C@@H](CC(C)(C)C)[C@@]2(CNc3cc(Cl)ccc32)[C@H]1c1cccc(Cl)c1F` [Example 29, (2′S,3S,4′S,5′R)-6-chloro-4′-(3-chloro-2-fluorophenyl)-N-(4-((R)-3-((2-((R)-2,6-dioxopiperidin-3-yl)-1-oxoisoindolin-4-yl)ethynyl)piperidin-1-yl)-2-methoxyphenyl)-2′-neopentylspiro[indoline-3,3′-pyrrolidine]-5′-carboxamide], on MDM2, the IC50 amounted to 12 nM.

In the case of `COc1cc(C(=O)N2CCC[C@@]3(C[C@@H]3C#Cc3cccc4c3CN([C@H]3CCC(=O)NC3=O)C4=O)C2)ccc1NC(=O)[C@@H]1N[C@@H](CC(C)(C)C)[C@@]2(CNc3cc(Cl)ccc32)[C@H]1c1cccc(Cl)c1F` [Example 62, (2′S,3S,4′S,5′R)-6-chloro-4′-(3-chloro-2-fluorophenyl)-2′-(2,2-dimethylpropyl)-N-{4-[(1R,3S)-1-(2-{2-[(3S)-2,6-dioxopiperidin-3-yl]-1-oxo-3H-isoindol-4-yl}ethynyl)-5-azaspiro[2.5]octane-5-carbonyl]-2-methoxyphenyl}-1,2-dihydrospiro[indole-3,3′-pyrrolidine]-5′-carboxamide], in test [1] (setting [2]), the IC50 was 40.2 nM.

For the molecule `COc1cc(C(=O)N[C@@H]2CCCC[C@@H]2CC#Cc2cccc3c2CN(C2CCC(=O)NC2=O)C3=O)ccc1NC(=O)[C@@H]1N[C@@H](CC(C)(C)C)[C@@]2(CNc3cc(Cl)ccc32)[C@H]1c1cccc(Cl)c1F` (stereo partly drawn) [Example 41, (2′S,3S,4′S,5′R)-6-chloro-4′-(3-chloro-2-fluorophenyl)-2′-(2,2-dimethylpropyl)-N-(4-{[(1R,2R)-2-{3-[2-(2,6-dioxopiperidin-3-yl)-1-oxo-3H-isoindol-4-yl]prop-2-yn-1-yl}cyclohexyl]carbamoyl}-2-methoxyphenyl)-1,2-dihydrospiro[indole-3,3′-pyrrolidine]-5′-carboxamide], the IC50 in test [1] (setting [2]) was determined as 54.3 nM.

Regarding `COc1cc(C(=O)O)ccc1NC(=O)[C@@H]1N[C@@H](CC(C)(C)C)[C@](C#N)(c2ccc(Cl)cc2F)[C@H]1c1cccc(Cl)c1F` [RG7388, reference compound], the IC50 in test [1] (setting [2]) came out at 110 nM.

Regarding `COc1cc(N2CCC[C@@H](C#Cc3cccc4c3CN([C@@H]3CCC(=O)NC3=O)C4=O)C2)ccc1NC(=O)[C@@H]1N[C@@H](CC(C)(C)C)[C@@]2(CNc3cc(Cl)ccc32)[C@H]1c1cccc(Cl)c1F` [Example 31, (2′S,3S,4′S,5′R)-6-chloro-4′-(3-chloro-2-fluorophenyl)-N-(4-((S)-3-((2-((R)-2,6-dioxopiperidin-3-yl)-1-oxoisoindolin-4-yl)ethynyl)piperidin-1-yl)-2-methoxyphenyl)-2′-neopentylspiro[indoline-3,3′-pyrrolidine]-5′-carboxamide], at MDM2, the IC50 was found to be 6.1 nM.

Take `COc1cc(C(=O)N2CCC[C@]3(C[C@H]3C#Cc3cccc4c3CN([C@H]3CCC(=O)NC3=O)C4=O)C2)ccc1NC(=O)[C@@H]1N[C@@H](CC(C)(C)C)[C@@]2(CNc3cc(Cl)ccc32)[C@H]1c1cccc(Cl)c1F` [Example 63, (2′S,3S,4′S,5′R)-6-chloro-4′-(3-chloro-2-fluorophenyl)-2′-(2,2-dimethylpropyl)-N-{4-[(1S,3R)-1-(2-{2-[(3S)-2,6-dioxopiperidin-3-yl]-1-oxo-3H-isoindol-4-yl}ethynyl)-5-azaspiro[2.5]octane-5-carbonyl]-2-methoxyphenyl}-1,2-dihydrospiro[indole-3,3′-pyrrolidine]-5′-carboxamide]: in test [1] (setting [2]), the IC50 came out at 41.6 nM.

At MDM2, `COc1cc(N2CCC[C@H](C#Cc3cccc4c3CN([C@H]3CCC(=O)NC3=O)C4=O)C2)ccc1NC(=O)[C@@H]1N[C@@H](CC(C)(C)C)[C@@]2(CNc3cc(Cl)ccc32)[C@H]1c1cccc(Cl)c1F` [Example 28, (2′S,3S,4′S,5′R)-6-chloro-4′-(3-chloro-2-fluorophenyl)-N-(4-((R)-3-((2-((S)-2,6-dioxopiperidin-3-yl)-1-oxoisoindolin-4-yl)ethynyl)piperidin-1-yl)-2-methoxyphenyl)-2′-neopentylspiro[indoline-3,3′-pyrrolidine]-5′-carboxamide] yielded an IC50 of 10.8 nM.

For the molecule `COc1cc(C(=O)N2CCCC[C@@H]2C#CC#Cc2cccc3c2CN(C2CCC(=O)NC2=O)C3=O)ccc1NC(=O)[C@@H]1N[C@@H](CC(C)(C)C)[C@@]2(CNc3cc(Cl)ccc32)[C@H]1c1cccc(Cl)c1F` (stereo partly drawn) [Example 46, (2′S,3S,4′S,5′R)-6-chloro-4′-(3-chloro-2-fluorophenyl)-2′-(2,2-dimethylpropyl)-N-{4-[(2R)-2-{4-[2-(2,6-dioxopiperidin-3-yl)-1-oxo-3H-isoindol-4-yl]buta-1,3-diyn-1-yl}piperidine-1-carbonyl]-2-methoxyphenyl}-1,2-dihydrospiro[indole-3,3′-pyrrolidine]-5′-carboxamide], the IC50 in test [1] (setting [2]) was greater than 1000 nM.

For the molecule `COc1cc(C(=O)N2CC(C#Cc3cccc4c3CN(C3CCC(=O)NC3=O)C4=O)C2)ccc1NC(=O)[C@@H]1N[C@@H](CC(C)(C)C)[C@@]2(CNc3cc(Cl)ccc32)[C@H]1c1cccc(Cl)c1F` (stereo partly drawn) [Example 55, (2′S,3S,4′S,5′R)-6-chloro-4′-(3-chloro-2-fluorophenyl)-2′-(2,2-dimethylpropyl)-N-[4-(3-{2-[2-(2,6-dioxopiperidin-3-yl)-1-oxo-3H-isoindol-4-yl]ethynyl}azetidine-1-carbonyl)-2-methoxyphenyl]-1,2-dihydrospiro[indole-3,3′-pyrrolidine]-5′-carboxamide], in test [1] (setting [2]), the IC50 is 11.2 nM.

Consider `COc1cc(C(=O)N2CCCC[C@H]2C#CC#Cc2cccc3c2CN(C2CCC(=O)NC2=O)C3=O)ccc1NC(=O)[C@@H]1N[C@@H](CC(C)(C)C)[C@@]2(CNc3cc(Cl)ccc32)[C@H]1c1cccc(Cl)c1F` (stereo partly drawn) [Example 47, (2′S,3S,4′S,5′R)-6-chloro-4′-(3-chloro-2-fluorophenyl)-2′-(2,2-dimethylpropyl)-N-{4-[(2S)-2-{4-[2-(2,6-dioxopiperidin-3-yl)-1-oxo-3H-isoindol-4-yl]buta-1,3-diyn-1-yl}piperidine-1-carbonyl]-2-methoxyphenyl}-1,2-dihydrospiro[indole-3,3′-pyrrolidine]-5′-carboxamide], for which the IC50 in test [1] (setting [2]) was greater than 1000 nM.

Consider `COc1cc(C(=O)N2CCC[C@@]3(C[C@H]3C#Cc3cccc4c3CN([C@H]3CCC(=O)NC3=O)C4=O)C2)ccc1NC(=O)[C@@H]1N[C@@H](CC(C)(C)C)[C@@]2(CNc3cc(Cl)ccc32)[C@H]1c1cccc(Cl)c1F` [Example 61, (2′S,3S,4′S,5′R)-6-chloro-4′-(3-chloro-2-fluorophenyl)-2′-(2,2-dimethylpropyl)-N-{4-[(1S,3S)-1-(2-{2-[(3S)-2,6-dioxopiperidin-3-yl]-1-oxo-3H-isoindol-4-yl}ethynyl)-5-azaspiro[2.5]octane-5-carbonyl]-2-methoxyphenyl}-1,2-dihydrospiro[indole-3,3′-pyrrolidine]-5′-carboxamide], for which the IC50 in test [1] (setting [2]) was determined as 5.75 nM.

Regarding `COc1cc(C(N)=O)ccc1NC(=O)[C@@H]1N[C@@H](CC(C)(C)C)[C@@]2(CNc3cc(Cl)ccc32)[C@H]1c1cccc(Cl)c1F` [Example 1, (2′S,3S,4′S,5′R)—N-(4-carbamoyl-2-methoxyphenyl)-6-chloro-4′-(3-chloro-2-fluorophenyl)-2′-neopentylspiro[indoline-3,3′-pyrrolidine]-5′-carboxamide], the IC50 in test [1] (RS4-11, 72 h) was 33 nM.

Regarding `COc1cc(C(=O)N2CCC[C@]3(C[C@@H]3C#Cc3cccc4c3CN([C@H]3CCC(=O)NC3=O)C4=O)C2)ccc1NC(=O)[C@@H]1N[C@@H](CC(C)(C)C)[C@@]2(CNc3cc(Cl)ccc32)[C@H]1c1cccc(Cl)c1F` [Example 64, (2′S,3S,4′S,5′R)-6-chloro-4′-(3-chloro-2-fluorophenyl)-2′-(2,2-dimethylpropyl)-N-{4-[(1R,3R)-1-(2-{2-[(3S)-2,6-dioxopiperidin-3-yl]-1-oxo-3H-isoindol-4-yl}ethynyl)-5-azaspiro[2.5]octane-5-carbonyl]-2-methoxyphenyl}-1,2-dihydrospiro[indole-3,3′-pyrrolidine]-5′-carboxamide], the IC50 in test [1] (setting [2]) is 188 nM.

Turning to `COc1cc(C(=O)N[C@H]2CCCC[C@H]2CC#Cc2cccc3c2CN(C2CCC(=O)NC2=O)C3=O)ccc1NC(=O)[C@@H]1N[C@@H](CC(C)(C)C)[C@@]2(CNc3cc(Cl)ccc32)[C@H]1c1cccc(Cl)c1F` (stereo partly drawn) [Example 40, (2′S,3S,4′S,5′R)-6-chloro-4′-(3-chloro-2-fluorophenyl)-2′-(2,2-dimethylpropyl)-N-(4-{[(1S,2S)-2-{3-[2-(2,6-dioxopiperidin-3-yl)-1-oxo-3H-isoindol-4-yl]prop-2-yn-1-yl}cyclohexyl]carbamoyl}-2-methoxyphenyl)-1,2-dihydrospiro[indole-3,3′-pyrrolidine]-5′-carboxamide], the IC50 in test [1] (setting [2]) amounted to 11.4 nM.

These data come from patent publication US20250073340A1, “SPIROCYCLIC MDM2 MODULATOR AND USES THEREOF” (Newave Pharmaceutical Inc., priority 2021, published 2025).
